Data published in publication PMC3581553, “New Approaches of PARP-1 Inhibitors in Human Lung Cancer Cells and Cancer Stem-Like Cells by Some Selected Anthraquinone-Derived Small Molecules” (PLoS ONE, 2013).
Where two headings read alike, the source gives them in different places.

Key:
A549/ATCC = assay: NCI-60 drug screen (SRB), NSCLC line A549/ATCC; assay type: cell-based, human; details: for LC50 (concentration killing 50% of cells) / GI50: Homo sapiens
Experimental: (§1) As a primary screening, seven selected compounds were submitted to the National Cancer Institute (NCI) cell lines screen for evaluation of their anticancer activity. From the data analysis, it follows that approximately 95% of the actives from the 60 cell lines screen can be identified. The detailed methods used for the 60 cell lines panel have been described elsewhere [54]–[59]. Briefly, cellular protein levels were determined after 48 hours of drug exposure by SRB colorimetry. Through the use of a time zero cell control, the cell growth can be determined for each cell line thus allowing calculations of GI50, TGI, and LC50. Comparison to plates not exposed to drug permits determination of concentration and times of exposure conferring GI50, TGI, and LC50. […] By these criteria, seven compounds reported from our compounds bank were all active and passed on for evaluation in the full panel of 60 human tumor cell lines. The panel is organized into nine subpanels representing diverse histology: leukemia, melanoma, and cancers of the lung, colon, kidney, ovary, breast, prostate, and central nervous system.

HOP-62 = assay: NCI-60 drug screen (SRB), NSCLC line HOP-62; assay type: cell-based, human; details: for GI50 / CC50: Homo sapiens; for CC50: read-out: LC50 (the source's name)
Experimental: as §1

NCI-H522 = assay: NCI-60 drug screen (SRB), NSCLC line NCI-H522; assay type: cell-based, human; details: for GI50 / CC50: Homo sapiens; for CC50: read-out: LC50 (the source's name)
Experimental: as §1

A549 cells = assay: MTT cytotoxicity assay, A549 cells; assay type: cell-based; details: Homo sapiens, 48 h of drug exposure
Experimental: Non-small cell lung cancer cells A549 and Oct-4- and Nanog-overexpressed A549 clone (clone #3; A3), presented the properties of cancer stem-like cells, as well as epithelial-mesenchymal transdifferentiation, according to our previous study. They were grown in the same conditions as RPMI 1640 media supplemented with 10% fetal bovine serum (FBS), 100 units/mL penicillin, […] streptomycin, 1 mM sodium pyruvate, 2 mM l-glutamine and 1% non-essential amino acid (NEAA) in a humidified atmosphere with 5% CO2 at 37°C. Normal fibroblast cells HEL299 from American Type Culture Collection (ATCC) were grown in MEM media supplemented with 10% FBS, 100 units/mL penicillin, […] streptomycin, 1 mM sodium pyruvate, 2 mM l-glutamine and 1% NEAA, in a humidified atmosphere with 5% CO2 at 37°C.
The tetrazolium reagent (MTT; 3-(4,5-dimethylthiazol-2-yl)-2,5-diphenyl-tetrazolium bromide, USB) was designed to yield a colored formazan upon metabolic reduction by viable cells, [61]. Approximately 5×10^4 cells were plated onto each well of a 24-well plate and incubated in 5% CO2 at 37°C for 24 hours. To assess the in vitro cytotoxicity, each compound was dissolved in DMSO and prepared immediately before the experiments and then was diluted into the complete medium before being added to cell cultures. Test compounds were then added to the culture medium in various designated concentrations. After 48 hours, an amount of 100 µl of MTT was added to each well, and the samples were incubated at 37°C for 2 h. 100 µl DMSO was added to each well. The absorbency at 560 nm and reference absorbency at 670 nm were measured using an ELISA reader.

PARP-1 = biological target: T1, PARP-1 (Homo sapiens, UniProt P09874); assay: PARP inhibitory assay (histone-coated plate, colorimetric); assay type: biochemical
T1 construct: purchased
T1 sequence (P09874 whole entry): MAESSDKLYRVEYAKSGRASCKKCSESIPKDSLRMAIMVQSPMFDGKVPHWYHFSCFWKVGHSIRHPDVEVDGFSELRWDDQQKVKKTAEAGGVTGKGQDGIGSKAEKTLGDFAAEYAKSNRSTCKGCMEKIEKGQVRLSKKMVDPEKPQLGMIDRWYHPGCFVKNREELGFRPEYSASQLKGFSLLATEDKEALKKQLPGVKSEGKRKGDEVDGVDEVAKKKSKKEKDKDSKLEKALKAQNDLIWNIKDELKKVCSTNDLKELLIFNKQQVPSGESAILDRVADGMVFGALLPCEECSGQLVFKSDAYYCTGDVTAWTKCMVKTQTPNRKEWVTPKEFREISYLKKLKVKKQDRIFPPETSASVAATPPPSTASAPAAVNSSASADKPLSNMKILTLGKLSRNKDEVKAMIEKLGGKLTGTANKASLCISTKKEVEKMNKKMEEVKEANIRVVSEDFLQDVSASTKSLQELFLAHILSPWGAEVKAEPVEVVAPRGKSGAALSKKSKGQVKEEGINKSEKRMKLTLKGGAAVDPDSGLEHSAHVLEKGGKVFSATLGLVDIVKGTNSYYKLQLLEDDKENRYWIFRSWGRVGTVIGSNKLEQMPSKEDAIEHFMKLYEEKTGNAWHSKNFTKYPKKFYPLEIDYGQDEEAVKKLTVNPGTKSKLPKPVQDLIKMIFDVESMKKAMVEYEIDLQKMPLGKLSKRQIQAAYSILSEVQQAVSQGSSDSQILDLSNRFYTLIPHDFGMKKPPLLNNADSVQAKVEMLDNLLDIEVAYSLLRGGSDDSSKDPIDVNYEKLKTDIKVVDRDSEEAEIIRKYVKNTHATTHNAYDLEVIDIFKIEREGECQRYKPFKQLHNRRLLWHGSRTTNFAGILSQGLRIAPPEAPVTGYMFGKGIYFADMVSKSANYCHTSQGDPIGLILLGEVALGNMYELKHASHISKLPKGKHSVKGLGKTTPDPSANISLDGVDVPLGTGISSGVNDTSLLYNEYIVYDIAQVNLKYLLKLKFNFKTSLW
Experimental: We used histone-coated 96-well plate treated with seven putative PARP-1 inhibitors or well-known PARP-1 inhibitors (3-AB), and then added PARP enzyme to each well. PARP enzyme catalyzes the NAD-dependent addition of poly (ADP-ribose) to histone, and diluted Strp-HRP could bind to PARylation histone. TACS-Sapphire™ yielded blue under the HRP existence. In order to systematically evaluate the potential anticancer activity, the compounds were tested for their cytotoxicity in vitro against 60 human cancer lines in the NCI anticancer drug screen as well as for dose response curves and telomerase activity. Cell growth was analyzed by the MTT assay, with differences between dose-response curves analyzed non-parametrically. Telomerase activity was detected by a modified version of the PCR-based assay and TRAP assay. […] However, PARP inhibitory effects had no difference at 1 and 10 µM. As described above, NSC746364, NSC746366 and NSC749232 show dose-dependency only at low concentrations. […] NSC747854 had dose-dependent PARP inhibitory manners at three different concentrations, and reached the maximum inhibitory effect of 86% at 10 µM (Table 4). […] In this investigation, we continued to focus our attention on the role of NSC747854 and to understand the basis of pharmacophore selectivity. Of particular note is the significant difference with these selected compounds, compared with that of 3-AB and PJ-34. […] An electron-rich aromatic ring system, including a carboxamide group, should have at least a hydrogen atom on the amide nitrogen. The amidinium moiety is known to contribute to the stabilization of DNA recognition element through electrostatic and hydrogen bonding interactions. Therefore, hydrogen bonds are frequently used as recognition elements due to their directionality and also due to being attractive factors to the biological activity (Figure 1). Many classes of drugs have substantial curvature, high DNA affinity, binding to the minor-groove or major-groove, interference with DNA-associated enzymes (e.g. telomerase), and Poly (ADP-ribose) polymerase, PARP. […] This approach greatly expands the utility of the substituents and related pharmacophore for the construction of drugs in general. Therefore, it is desirable to design PARP inhibitors in accordance with various anticancer parameters. It was first reported that anthraquinone analogues are potent human PARP inhibitors.
Strip wells were removed from the wrapper and 50 µl of 1X PARP Buffer was added to each well to rehydrate the histones. They were incubated at room temperature for 30 minutes. The 1X PARP buffer was removed from the wells by tapping the strip wells on paper towels. The serial dilutions of inhibitor of interest were added to appropriate wells. The diluted PARP enzyme (0.5 unit/well) was then added to the wells containing inhibitor. They were incubated for 10 minutes at room temperature. The PARP Enzyme-High Specific Activity (PARP-HAS) standard was serially diluted in cold micro-tubes with 1X PARP buffer such that the total activity was 1 unit/25 µl, 0.5 units/25 µl, 0.25 units/25 µl, 0.1 units/25 µl, 0.05 units/25 µl, 0.025 units/25 µl, and 0.01 units/25 µl, respectively. The 25 µl of each standard was added to triplicate wells. The 25 µl of 1X PARP cocktail were distributed into each well by using a multichannel pipettor. The final reaction volume is 50 µl. They were incubated along with the strip wells at room temperature for 60 minutes. The strip wells were washed 2 times with 1X PBS +0.1% Triton X-100 (200 µl/well) followed by 2 washes with 1X PBS. All the liquid was removed following each wash by tapping strip wells onto paper towels. The 50 µl diluted Strep-HRP were added per well. They were incubated at room temperature for 60 minutes. The strip wells were washed 2 times with 1X PBS +0.1% Triton X-100 (200 µl/well) followed by 2 washes with 1X PBS. All the liquid was removed following each wash by tapping strip wells onto paper towels. […]

[1] = 48 hours drug exposure, SRB, read-out: GI50
[2] = NCI in vitro 60-cell lines Drug Screen, read-out: -Log GI50 (converted)

CN(C)CC(=O)Nc1ccc2c(c1)C(=O)c1cc(NC(=O)CN(C)C)ccc1C2=O [NSC746364]
TGI (A549/ATCC; 48 hours drug exposure, SRB): 4.43 µM
LC50 (concentration killing 50% of cells) (A549/ATCC; 48 hours drug exposure, SRB): > 100 µM
GI50 (A549/ATCC; [1]): 1.45 µM
GI50 (A549/ATCC; [2]): 1.45 µM
TGI (HOP-62; 48 hours drug exposure, SRB): 20.5 µM
GI50 (HOP-62; [1]): 4.56 µM
CC50 (HOP-62; 48 hours drug exposure, SRB): 60.8 µM
GI50 (HOP-62; [2]): 4.57 µM
TGI (NCI-H522; 48 hours drug exposure, SRB): 13.1 µM
GI50 (NCI-H522; [1]): 1.27 µM
CC50 (NCI-H522; 48 hours drug exposure, SRB): 66.4 µM
GI50 (NCI-H522; [2]): 1.26 µM
IC50 (A549 cells): 4.49 µM
inhibition at 0.1 µM (PARP-1): 31%
inhibition at 1 µM (PARP-1): 54%
inhibition at 10 µM (PARP-1; 10 µM): 56%

CCN(CC)CCC(=O)Nc1ccc2c(c1)C(=O)c1cc(NC(=O)CCN(CC)CC)ccc1C2=O [NSC746365]
TGI (A549/ATCC; 48 hours drug exposure, SRB): 3.95 µM
LC50 (concentration killing 50% of cells) (A549/ATCC; 48 hours drug exposure, SRB): 15.5 µM
GI50 (A549/ATCC; [1]): 1.44 µM
GI50 (A549/ATCC; [2]): 1.45 µM
TGI (HOP-62; 48 hours drug exposure, SRB): 5.80 µM
GI50 (HOP-62; [1]): 1.73 µM
CC50 (HOP-62; 48 hours drug exposure, SRB): 24 µM
GI50 (HOP-62; [2]): 1.74 µM
TGI (NCI-H522; 48 hours drug exposure, SRB): 4.59 µM
GI50 (NCI-H522; [1]): 1.4 µM
CC50 (NCI-H522; 48 hours drug exposure, SRB): 19.3 µM
GI50 (NCI-H522; [2]): 1.38 µM
IC50 (A549 cells): 7.66 µM
inhibition at 0.1 µM (PARP-1): 50%
inhibition at 1 µM (PARP-1): 56%
inhibition at 10 µM (PARP-1; 10 µM): 51%

O=C(CCN1CCCC1)Nc1ccc2c(c1)C(=O)c1cc(NC(=O)CCN3CCCC3)ccc1C2=O [NSC746366]
TGI (A549/ATCC; 48 hours drug exposure, SRB): 12.7 µM
LC50 (concentration killing 50% of cells) (A549/ATCC; 48 hours drug exposure, SRB): 74.7 µM
GI50 (A549/ATCC; [1]): 2.2 µM
GI50 (A549/ATCC; [2]): 2.19 µM
TGI (HOP-62; 48 hours drug exposure, SRB): 11.6 µM
GI50 (HOP-62; [1]): 2.48 µM
CC50 (HOP-62; 48 hours drug exposure, SRB): 45.4 µM
GI50 (HOP-62; [2]): 2.51 µM
TGI (NCI-H522; 48 hours drug exposure, SRB): 17.1 µM
GI50 (NCI-H522; [1]): 3.41 µM
CC50 (NCI-H522; 48 hours drug exposure, SRB): > 100 µM
GI50 (NCI-H522; [2]): 3.39 µM
IC50 (A549 cells): 7.76 µM
inhibition at 0.1 µM (PARP-1): 16%
inhibition at 1 µM (PARP-1): 45%
inhibition at 10 µM (PARP-1; 10 µM): 47%

CN(C)CCCSc1nc2ccc3c(c2[nH]1)C(=O)c1ccccc1C3=O [NSC747854]
TGI (A549/ATCC; 48 hours drug exposure, SRB): 12.6 µM
GI50 (A549/ATCC; [1]): 3.26 µM
GI50 (A549/ATCC; [2]): 3.24 µM
TGI (HOP-62; 48 hours drug exposure, SRB): 32.3 µM
GI50 (HOP-62; [1]): 5.9 µM
CC50 (HOP-62; 48 hours drug exposure, SRB): 48.9 µM
GI50 (HOP-62; [2]): 5.89 µM
TGI (NCI-H522; 48 hours drug exposure, SRB): 24.9 µM
GI50 (NCI-H522; [1]): 1.22 µM
CC50 (NCI-H522; 48 hours drug exposure, SRB): 50 µM
GI50 (NCI-H522; [2]): 12.3 µM
IC50 (A549 cells): 12.2 µM
inhibition at 0.1 µM (PARP-1): 30%
inhibition at 1 µM (PARP-1): 57%
PARP inhibitory activity (%) (PARP-1; 10 µM): 65%

Cc1ccc(C(=O)Nc2c(NC(=O)CCl)ccc3c2C(=O)c2ccccc2C3=O)cc1 [NSC749232]
TGI (A549/ATCC; 48 hours drug exposure, SRB): 29.2 µM
LC50 (concentration killing 50% of cells) (A549/ATCC; 48 hours drug exposure, SRB): > 100 µM
GI50 (A549/ATCC; [1]): 12.3 µM
GI50 (A549/ATCC; [2]): 12.3 µM
TGI (HOP-62; 48 hours drug exposure, SRB): 9.49 µM
GI50 (HOP-62; [1]): 2.97 µM
CC50 (HOP-62; 48 hours drug exposure, SRB): 24.4 µM
GI50 (HOP-62; [2]): 2.95 µM
TGI (NCI-H522; 48 hours drug exposure, SRB): 2.03 µM
GI50 (NCI-H522; [1]): 8.95 µM
GI50 (NCI-H522; [2]): 0.891 µM
IC50 (A549 cells): 6.62 µM
inhibition at 0.1 µM (PARP-1): 42%
inhibition at 1 µM (PARP-1): 51%
inhibition at 10 µM (PARP-1; 10 µM): 52%

CN1CCN(Cc2nc3ccc4c(c3[nH]2)C(=O)c2ccccc2C4=O)CC1 [NSC749235]
TGI (A549/ATCC; 48 hours drug exposure, SRB): 24.3 µM
LC50 (concentration killing 50% of cells) (A549/ATCC; 48 hours drug exposure, SRB): 67.2 µM
GI50 (A549/ATCC; [1]): 7.58 µM
GI50 (A549/ATCC; [2]): 7.59 µM
TGI (HOP-62; 48 hours drug exposure, SRB): 30.5 µM
GI50 (HOP-62; [1]): 19.4 µM
CC50 (HOP-62; 48 hours drug exposure, SRB): 95.4 µM
GI50 (HOP-62; [2]): 9.33 µM
TGI (NCI-H522; 48 hours drug exposure, SRB): 29.0 µM
GI50 (NCI-H522; [1]): 13.8 µM
CC50 (NCI-H522; 48 hours drug exposure, SRB): 61 µM
GI50 (NCI-H522; [2]): 13.8 µM
IC50 (A549 cells): 10.6 µM
inhibition at 0.1 µM (PARP-1): 40%
inhibition at 1 µM (PARP-1): 28%
inhibition at 10 µM (PARP-1; 10 µM): 58%
